# Test results taken from PMC7961786, “Magic Peptide: Unique Properties of the LRR11 Peptide in the Activation of Leukotriene Synthesis in Human Neutrophils” (International Journal of Molecular Sciences, 2021).
# Oligonucleotides are written 5' to 3', each unit as a sugar letter and its base; * is a phosphorothioate linkage, no mark a phosphodiester; rarer units and linkages stand in square brackets, end groups in braces. Plain capitals give the bases only. d = 2'-deoxy (DNA)
# Legend:
# [1] = test system: human neutrophils (PMNLs), 5-LOX product synthesis; assay: 5-LOX metabolite synthesis in human neutrophils stimulated with opsonized S. typhimurium (HPLC); type: cell-based
# Procedure: Figure 1 Effects of LRR11 and ODNs on the formation of LTB4 (A,B) and the sum of 5-LOX metabolites (ω-OH-LTB4, LTB4 and its isomers, and 5-HETE) (C) in human PMNLs. PMNLs (2 × 10^7) were incubated for 15 min at 37 °C without (black bars) or with 1 μM LRR11 (A, LRR11_first); then ODNs and LRR11 or LPS were added; various ways of adding ODN and LRR11 peptide are indicated. In control samples, Hanks’ solution was added instead of ODNs. After 20 min, 0.5 × 10^9 S. typhimurium bacterial cells were added for a further 15 min. The 5-LOX products were determined using HPLC. Values indicate mean ± SEM of five independent experiments performed in duplicate. * p < 0.05, ** p < 0.01, *** p < 0.005, compared with the control. # p < 0.05, ## p < 0.01 for pairs of data compared as indicated by two-way ANOVA followed by Tukey’s multiple comparison test.
# Figure 3 Synthesis of the 5-LOX metabolites in PMNLs exposed to opsonized S. typhimurium bacteria in the presence of the RAGE antagonist FPS-ZM1. PMNLs (2 × 10^7) were incubated for 15 min at 37 °C without additives or with 0.15 µM FPS-ZM1, for the next 20 min the mixture was incubated with 1 µM ODNs without (black bars) or with 1 µM LRR11 (gray bars) before adding 5 × 10^8 S. typhimurium for 15 min. In control samples, Hanks’ solution was added instead of ODNs. The 5-LOX products were determined using HPLC. Graphical data are presented for LTB4 (A) or the sum of LTB4 and its isomers, ω-OH-LTB4 and 5-HETE, designed as Σ5LOX products (B).
# Human neutrophils were isolated from freshly taken citrate-anticoagulated peripheral blood from healthy individuals using standard methods. Leukocyte-rich plasma was prepared by sedimentation of erythrocytes with 3% dextran T-500 at room temperature. For purification of granulocytes, centrifugation through Ficoll-Paque (density 1.077 g/mL) was used, followed by hypotonic lysis of the remaining erythrocytes. […] All methods were performed in accordance with the relevant instructions and regulations of the Ministry of Health of the Russian Federation and local legislation.
# Bacteria (S. typhimurium IE 147 strain) obtained from the Collection of Gamaleya National Research Center of Epidemiology and Microbiology (Moscow, Russia) were grown in Luria–Bertani broth to a concentration of 1 × 10^9 colony-forming units (CFU)/mL. The bacteria were collected by centrifugation at 2000 g and opsonized immediately before the experiment for 30 min in 20% (v/v) fresh serum from the same donor whose blood was used to isolate neutrophils. Repeated centrifugation in Dulbecco’s solution was used to wash the bacteria.
# The cell suspension (2 × 10^7 PMNLs in HBSS/HEPES, reaction volume of 6 mL) was cultured for 15 min in an incubator at 37 °C, 5% CO2. Then 1.0 µM ODN with or without 1.0 µM LRR11, or 2 µg/mL LPS, was added as indicated. After 20 min, the cells were stimulated with S. typhimurium (the ratio of bacteria to PMNLs was approximately 20:1) for the next 15 min [3]. The synthesis of 5-LOX metabolites was stopped by adding an equal volume of methanol at −20 °C with prostaglandin B2 as an internal standard. Samples were stored at −20 °C. The denatured cell suspension was centrifuged, and supernatants designated as water/methanol extracts.
# (§1) To purify the water/methanol extracts, solid-phase extraction was used on Sep-Pak C18 cartridges (500 mg; Macherey-Nagel, Dueren, Germany), which were conditioned first with methanol, and then with water. Major 5-LOX metabolites were identified by comparing retention times with those of known compounds, as previously described.
# Table S1. Effect of Chloroquine on 5-LOX product formation in PMNLs after ODN priming followed by the addition
# of opsonized S. typhimurium bacteria.
# [2] = test system: PMNLs, 5-LOX product formation; assay: 5-LOX product formation in PMNLs stimulated by calcium ionophore A23187; type: cell-based, human; conditions: 1 µM A23187 alone for 10 min, after 30 min at 37 °C without inhibitor; mean ± SEM, three independent experiments
# Procedure: Human neutrophils were isolated from freshly taken citrate-anticoagulated peripheral blood from healthy individuals using standard methods. Leukocyte-rich plasma was prepared by sedimentation of erythrocytes with 3% dextran T-500 at room temperature. For purification of granulocytes, centrifugation through Ficoll-Paque (density 1.077 g/mL) was used, followed by hypotonic lysis of the remaining erythrocytes. PMNLs were washed twice in PBS, resuspended at 10^7 cells/mL (96–97% purity, 98–99% viability) in Dulbecco’s PBS containing 1 mg/mL glucose (no CaCl2) and stored at room temperature. All methods were performed in accordance with the relevant instructions and regulations of the Ministry of Health of the Russian Federation and local legislation.
# as §1
# [3] = test system: 5′-biotinylated C-CpG; assay: TSM acoustic biosensor, peptide binding to immobilized C-CpG; conditions: up to 100 nM URP, immobilized C-CpG; Figure 4A
# Text: (§2) To characterize the interaction of the studied synthetic ODNs with the LRR11 peptide, we applied the thickness shear mode (TSM) acoustic biosensor method, which is based on the investigation of ultrasonic waves in piezoelectric materials such as AT-cut quartz. This approach involved immobilizing a 5′-biotinylated ODN on the surface of TSM transducer covered by NeutrAvidin and then adding the LRR11 peptide. An unrelated peptide (URP) with a random primary structure ([…]) was used as a negative control. The measurement procedure was divided into several steps, in which each immobilization stage was followed by washing with an appropriate buffer solution; when peptide solutions at different concentrations (from 1 to 100 nM) were added to the surface-modified TSM transducer, a wash with Hanks buffer was used before increasing the peptide concentration.
# (§3) Based on Langmuir isotherm Equation (1), (1) Δfcc=Δfsmaxc/KD+c where Δfs(c) is the frequency change at a certain peptide concentration under equilibrium conditions, (Δfs)max is the maximum frequency change, c is the peptide concentration, and KD is the equilibrium constant of dissociation, we estimated the (Δfs)max and KD values for binding of the LRR11 peptide to C-CpG and B-CpG (Table 3).
# Using Sauerbrey’s Equation (2), (2) Δf=−2f02Δm/Aμqρq where f0 is the fundamental resonance frequency (in our case 8 MHz), Δm is the change in mass (in grams) of the adsorbed layer on the crystal surface, A is the effective crystal area (in our case 0.2 cm^2), μq = 2.947 × 10^11 g × cm^−1s^−2 is the shear modulus of elasticity, and ρq = 2.648 g × cm^−3 is the crystal density, surface concentrations of NeutrAvidin, ODN and LRR11 peptide were estimated based on changes of resonance frequency (Figure 4). According to Equation (2), the surface density of molecules, σ (in molecules/cm^2), can be calculated as σ = ΔmNA/(A × Mw), where NA is Avogadro’s number (=6.023 × 10^23 mol^−1), and Mw represents the molecular weight of the corresponding compound (NeutrAvidin: 65 kDa, 5′-biotinylated C-CpG: 7115.4 Da, and LRR11: 3421 Da). Based on this approach, we obtained the following surface concentration values: 1.94 × 10^13 cm^−2 for NeutrAvidin, 3.37 × 10^13 cm^−2 for C-CpG and 2.4 × 10^13 cm^−2 for LRR11. The NeutrAvidin has four binding sites, two of which are available for biotinylated ODN binding. This is due to the fact that the other two sites are inaccessible due to NeutrAvidin chemisorption on the TSM surface. Thus, the number of available binding sites for the ODN is 3.88 × 10^13 cm^−2. […] Therefore, the surface of the TSM transducer is practically completely saturated by C-CpG. Estimation of the surface concentration of LRR11 evidences that at 50 nM concentration of this peptide, it occupies almost 70.6% of the ODN molecules. […]
# [4] = test system: 5′-biotinylated B-CpG; assay: TSM acoustic biosensor, peptide binding to immobilized B-CpG; conditions: URP, immobilized B-CpG
# Text: as §2, §3
# Eight MHz AT-cut piezoelectric quartz crystal transducer was obtained from CH Instruments, Austin, TX, USA. The transducer was covered on both sides with thin layers of gold that served as electrodes (working area 0.2 cm^2). Prior ODNs immobilization, the crystal was carefully cleaned with basic Piranha solution (29% NH3, 30% H2O and H2O2 with volumetric 1:5:1 ratio, respectively) for 25 min. After the thorough cleaning, the crystal was positioned between two silicon O-rings in a flow-through cell. The analyte was injected into the cell using a Genie Plus syringe pump (Kent Scientific, Torrington, CT, USA) at a flow rate of 50 μL/min. Each solution was applied until the resonance frequency stabilized. The surface of the transducer was first washed with deionized water, and then 125 μg/mL NeutrAvidin (WWR International GmbH, Vienna, Austria) solution in water was applied. Approximately 15 min were required to stabilize the signal at a constant NeutrAvidin flow rate. This was followed by washing with water to rinse out all non-chemisorbed NeutrAvidin molecules. Immobilization of ODN on the gold surface of the crystals is accomplished using avidin–biotin interactions. A 1 μM 5′-biotinylated ODN solution was injected over the neutravidin-modified surface and subsequently the crystal was washed again with water. The system was then equilibrated using Hanks buffer solution. This buffer was suitable for studying LRR11–ODN binding. Then LRR11 was used at concentrations of 1, 5, 10, 50 and 100 nM […] in Hanks buffer. After each addition of LRR11, the sensor surface was washed with Hanks buffer and LRR11 with the higher concentration was added. All binding experiments were carried out at room temperature. Buffer and sample solutions were introduced in a flow-through format. A network analyzer 8712ES (Agilent Technologies, Santa Clara, CA, USA) was used to measure the impedance properties of the sensor and determine fS and Rm.
# [5] = test system: 5′-biotinylated G-rich ODN; assay: TSM acoustic biosensor, peptide binding to immobilized G-rich ODN; conditions: URP, immobilized G-rich ODN
# Text: as §2
# (§4) Eight MHz AT-cut piezoelectric quartz crystal transducer was obtained from CH Instruments, Austin, TX, USA. The transducer was covered on both sides with thin layers of gold that served as electrodes (working area 0.2 cm^2). Prior ODNs immobilization, the crystal was carefully cleaned with basic Piranha solution (29% NH3, 30% H2O and H2O2 with volumetric 1:5:1 ratio, respectively) for 25 min. After the thorough cleaning, the crystal was positioned between two silicon O-rings in a flow-through cell. […]
# [6] = test system: NeutrAvidin; assay: TSM acoustic biosensor, unspecific binding to NeutrAvidin in the absence of ODNs
# Text: as §2, §4
molecule,measurement,setting,value
5′- ggGGACGACGTCGTGgggggg-3′ (DNA dG*dG*dGdGdAdCdGdAdCdGdTdCdGdTdGdG*dG*dG*dG*dG*dG) [A-CpG],effect on 5-LOX activity / leukotriene synthesis,"[1]; ODN alone, 1 µM, 20 min, then opsonized S. typhimurium 15 min, Figure 1, five independent experiments in duplicate",did not significantly affect 5-LOX activity
same,Σ 5-LOX metabolites,"[1]; Table S1, 2×10^7 PMNLs, 15 min at 37 °C without or with 5 µM Chloroquine, then ODN, after 20 min 0.5×10^9 opsonized S. typhimurium for 15 min, mean ± SEM, three independent experiments",18.4 ± 2.1 ng/107 PMNLs
CNc1ccc2oc(C[C@H]3O[C@@]4(CC[C@H]3C)O[C@H]([C@H](C)C(=O)c3ccc[nH]3)[C@H](C)C[C@H]4C)nc2c1C(=O)O [A23187],Σ 5-LOX metabolites,[2],416 ± 37 ng/10^7 PMNLs
"LQTLDLRDNALTTIHFIPSIPD [URP, unrelated peptide with a random primary structure, negative control, reference compound]",frequency reduction by URP,[3],no frequency reduction was occurred even after the addition of 100 nM URP
same,interaction of URP with ODN,[4],absence of interactions between the URP and ODNs
same,interaction of URP with ODN,[5],absence of interactions between the URP and ODNs
same,unspecific binding to NeutrAvidin,[6],no unspecific biding
